Series [1] relates to MCF-7 human breast carcinoma line. The series is described as follows: MCF-7 GI50 determination (crystal violet). It counts as cell-based. The conditions noted are these: Homo sapiens, MCF7, 96 h, read-out: MCF-7 Cells GI50. On the procedure: Growth inhibition (GI50) values were measured on the human breast carcinoma line, MCF-7. MCF-7 cells were plated at 2×10^4 cells/well in 96 well plates and grown for 24 hours in drug free media. On day 2, test compounds were added to the plates at 10-fold dilutions. Four days later, cells were fixed by the addition of glutaraldehyde to 0.75%. After 30 min, the fixed cells were extensively rinsed with distilled water and dried at room temperature for one hour. The cells were then stained with a 0.2% crystal violet solution for one hour at room temperature. Unbound stain was removed by ten rinses with tap water and plates were allowed to air dry for 30 min. The crystal violet was then solubilized by the addition of 10% acetic acid for 15 min and quantified by measuring absorbance at 570 nm on a Molecular Devices microplate reader. Growth inhibition was calculated according to the following equation: GI=[…], where the optical density (OD) of the test well after 4 days of treatment was T, the OD of the wells in the control plate on day 0 was T0. Plots of percent growth inhibition versus inhibitor concentration were used to determine the GI50.

The subject of series [2] is HeLa S-3 human cervical carcinoma cell line. The series is described as follows: HeLa GI50 determination (SRB). It counts as cell-based. The settings on record: Homo sapiens, HeLa S3, 48 h, read-out: HeLa Cells GI50. On the procedure:
Growth inhibition (GI50) values were measured on the human cervical carcinoma cell line, HeLa S-3, which were selected for growth on plastic. The HeLa cell assay was based on the description of Skehan et al., J. Natl. Cancer Inst., 82:1107-12 (1990), which is hereby incorporated by reference in its entirety. HeLa cells were plated at 2×10^4 cells/well in 96 well plates. One day later, a control plate was fixed by the addition of TCA to 5%. After five rinses with tap water, the plate was air-dried and stored at 4° C. Test compounds were added to the remaining plates at 10-fold dilutions. Two days later, all plates were fixed as described above. Cells were then stained by the addition of 100 μL per well of 0.4% sulforhodamine B (SRB) in 1% acetic acid for 30 min at 4° C. Wells were then quickly rinsed 5× with 1% acetic acid and allowed to air dry. The SRB was then solubilized by the addition of 100 μL per well of unbuffered 10 mM Tris base. Dye was quantified by measuring absorbance at 490 nm on a Molecular Devices microplate reader. Growth inhibition was calculated according to the following equation: GI=100×(T−T0)/(C−T0), where the optical density (OD) of the test well after 2 days of treatment was T, the OD of the wells in the control plate on day 0 was T0 and C was the OD of untreated wells. Plots of percent growth inhibition versus inhibitor concentration were used to determine the GI50.

Setting [3] is: MCF-7, 4 days of treatment, crystal violet.
[4] abbreviates: HeLa S-3, 2 days of treatment, SRB.

Structures can show the parent of a compound that is named as a salt. Where two headings read alike, the source gives them in different places.

For the molecule `CCC1=C[C@H]2CN(C1)Cc1c([nH]c3ccc(SCCC(=O)OC)cc13)[C@@](C(=O)OC)(c1cc3c(cc1OC)N(C)[C@H]1[C@@](O)(C(=O)OC)[C@H](OC(C)=O)C4C(CC)=CCN5CC[C@]31[C@H]45)C2` (stereo partly shown) (as salt: tartrate) [Example 7, 11′-(methoxycarbonylethylsulfanyl) vinorelbine], the melting point was 140 to 170 °C (dec.).

In the case of `CCC1=C[C@H]2CN(C1)Cc1c([nH]c3ccc(C#N)cc13)[C@@](C(=O)OC)(c1cc3c(cc1OC)N(C)[C@H]1[C@@](O)(C(=O)OC)[C@H](OC(C)=O)C4C(CC)=CCN5CC[C@]31[C@H]45)C2` (stereo partly shown) [Example 25, 11′-cyanovinorelbine], the figures for the GI50 in series [1] (setting [3]) and in series [2] (setting [4]) were 6 nM and 1 nM, respectively.

Take `CCC1=C[C@H]2CN(C1)Cc1c([nH]c3ccc(C(C)=O)cc13)[C@@](C(=O)OC)(c1cc3c(cc1OC)N(C)[C@H]1[C@@](O)(C(=O)OC)[C@H](OC(C)=O)C4C(CC)=CCN5CC[C@]31[C@H]45)C2` (stereo partly shown) [Example 26, 11′-acetylvinorelbine]: the 50% growth inhibitory concentration (GI50) was determined as 20 nM in series [1] (setting [3]) and 4 nM in series [2] (setting [4]).

As to `CCC1=C[C@H]2CN(C1)Cc1c([nH]c3ccc(C(=O)OC)cc13)[C@@](C(=O)OC)(c1cc3c(cc1OC)N(C)[C@H]1[C@@](O)(C(=O)OC)[C@H](OC(C)=O)C4C(CC)=CCN5CC[C@]31[C@H]45)C2` (stereo partly shown) [Example 27, 11′-(methoxycarbonyl) vinorelbine], the GI50 in series [1] (setting [3]) is 50 nM; in series [2] (setting [4]) it was 30 nM.

In the case of `CCC1=C[C@H]2CN(C1)Cc1c([nH]c3ccc(C(=O)OCC(Cl)(Cl)Cl)cc13)[C@@](C(=O)OC)(c1cc3c(cc1OC)N(C)[C@H]1[C@@](O)(C(=O)OC)[C@H](OC(C)=O)C4C(CC)=CCN5CC[C@]31[C@H]45)C2` (stereo partly shown) [Example 28, 11′-(2,2,2-trichloroethoxycarbonyl) vinorelbine], the results for the concentration for 50% growth inhibition (GI50) in series [1] and in series [2] were above 1000 nM and 300 nM, respectively.

Turning to `CCC1=C[C@H]2CN(C1)Cc1c([nH]c3ccc(C(=O)OCC(Cl)Cl)cc13)[C@@](C(=O)OC)(c1cc3c(cc1OC)N(C)[C@H]1[C@@](O)(C(=O)OC)[C@H](OC(C)=O)C4C(CC)=CCN5CC[C@]31[C@H]45)C2` (stereo partly shown) [Example 29, 11′-(2,2-dichloroethoxycarbonyl)vinorelbine], the values for the GI50 in series [1] (setting [3]) and in series [2] (setting [4]) were 300 nM and 70 nM, respectively.

Turning to `CCC1=C[C@H]2CN(C1)Cc1c([nH]c3ccc(-c4ccccc4)cc13)[C@@](C(=O)OC)(c1cc3c(cc1OC)N(C)[C@H]1[C@@](O)(C(=O)OC)[C@H](OC(C)=O)C4C(CC)=CCN5CC[C@]31[C@H]45)C2` (stereo partly shown) [Example 30, 11′-phenylvinorelbine], the GI50 in series [1] (setting [3]) stood at 300 nM; in series [2] (setting [4]), 70 nM.

As for `CCC1=C[C@H]2CN(C1)Cc1c([nH]c3ccc(-c4cccc(O)c4)cc13)[C@@](C(=O)OC)(c1cc3c(cc1OC)N(C)[C@H]1[C@@](O)(C(=O)OC)[C@H](OC(C)=O)C4C(CC)=CCN5CC[C@]31[C@H]45)C2` (stereo partly shown) [Example 31, 11′-(3-hydroxyphenyl) vinorelbine], the GI50 in series [1] (setting [3]) was determined as 600 nM; in series [2] (setting [4]), 300 nM.

As for `CCC1=C[C@H]2CN(C1)Cc1c([nH]c3ccc(-c4c(C)noc4C)cc13)[C@@](C(=O)OC)(c1cc3c(cc1OC)N(C)[C@H]1[C@@](O)(C(=O)OC)[C@H](OC(C)=O)C4C(CC)=CCN5CC[C@]31[C@H]45)C2` (stereo partly shown) [Example 32, 11′-(3,5-dimethylisoxazol-4yl)vinorelbine], the results for the 50% growth inhibitory concentration (GI50) in series [1] (setting [3]) and in series [2] (setting [4]) were 400 nM and 300 nM, respectively.

Take `CCC1=C[C@H]2CN(C1)Cc1c([nH]c3ccc(C)cc13)[C@@](C(=O)OC)(c1cc3c(cc1OC)N(C)[C@H]1[C@@](OC)(C(=O)OC)[C@H](OC(C)=O)C4C(CC)=CCN5CC[C@]31[C@H]45)C2` (stereo partly shown) [Example 33, 3,11′-dimethyl vinorelbine]: the 50% growth inhibitory concentration (GI50) worked out at 50 nM in series [1] (setting [3]) and 30 nM in series [2] (setting [4]).

On to `CCC1=C[C@H]2CN(C1)Cc1c([nH]c3ccc(I)cc13)[C@@](C(=O)OC)(c1cc3c(cc1OC)N(C)[C@H]1[C@@](OC)(C(=O)OC)[C@H](OC(C)=O)C4C(CC)=CCN5CC[C@]31[C@H]45)C2` (stereo partly shown) [Example 34, 3-methyl-11′-iodo vinorelbine], for which the GI50 in series [1] (setting [3]) and in series [2] (setting [4]) was 30 nM in each case.

Take `CCC1=C[C@H]2CN(C1)Cc1c([nH]c3ccc(N)cc13)[C@@](C(=O)OC)(c1cc3c(cc1OC)N(C)[C@H]1[C@@](O)(C(=O)OC)[C@H](OC(C)=O)C4C(CC)=CCN5CC[C@]31[C@H]45)C2` (stereo partly shown) [Example 35, 11′-aminovinorelbine]: the GI50 in series [1] (setting [3]) was 600 nM; in series [2] (setting [4]), 300 nM.

Regarding `CCC1=C[C@H]2CN(C1)Cc1c([nH]c3ccc(Nc4ccc(OC)cc4)cc13)[C@@](C(=O)OC)(c1cc3c(cc1OC)N(C)[C@H]1[C@@](O)(C(=O)OC)[C@H](OC(C)=O)C4C(CC)=CCN5CC[C@]31[C@H]45)C2` (stereo partly shown) [Example 36, 11′-(4-methoxyphenylamino)vinorelbine], the values for the GI50 in series [1] (setting [3]) and in series [2] (setting [4]) were 400 nM and 300 nM, respectively.

In general, melting point refers to the temperature, or range, at which the solid turns liquid. For orientation: GI50 means the concentration at which growth is held to half of that of the control.

The values are drawn from patent US7842802B2, “Vinorelbine derivatives” (priority 2003, dated 2010).
